In PubChem BioAssay (NCI):
Values joined by “and” are separate entries in the source; they are usually repeats but may differ in a detail not shown here. Equal entries are not always repeated.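 Results reflect a 48-hour exposure of cells in 96-well plates to compound at five concentrations. At the GI50, growth is halved. TGI: total growth inhibition.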

Columns and labels:
Assay in all cases: NCI anticancer screen, dose series, 48 h
[1] = system: CCRF-CEM leukemia
[2] = system: KM12 colon
[3] = system: MDA-MB-231 breast
[4] = system: OVCAR-4 ovarian
[5] = system: PC-3 prostate
[6] = system: RXF 393 renal
[7] = system: SN12C renal
[8] = system: UO-31 renal

SMILES	GI50 [1] [µM]	TGI [1] [µM]	GI50 [2] [µM]	TGI [2]	GI50 [3]	TGI [3]	GI50 [4] [µM]	TGI [4] [µM]	GI50 [5]	TGI [5]	GI50 [6] [nM]	TGI [6]	GI50 [7] [µM]	TGI [7] [µM]	GI50 [8]	TGI [8]
N#CC1=C(N)OC2=C(COc3ccc(F)cc32)C1c1ccc(Cl)cc1 (configuration not stated)	55.5	> 100	33.4	> 100 µM	26.1 µM	88 µM	78.3	> 100	32.3 µM	> 100 µM	> 100000	> 100 µM	28.3	> 100	48.5 µM	> 100 µM
O=C1CCCCCCCC/C=C/CCC(c2ccco2)O1 (configuration not stated)	27	> 100	20.7	> 100 µM	40 µM	97.6 µM			77.8 µM	> 100 µM	> 100000	> 100 µM	31.7	> 100		
c1ccc(C(=NNc2nc3ccccc3o2)c2ccccn2)nc1	0.033		0.0681	17.8 µM and 15 µM	0.0693 µM	21.6 µM and 17.7 µM	0.0128		0.0436 µM	26.6 µM and 13.8 µM		5.96 µM and 3.95 µM	0.0856	> 71.7	0.0427 µM	1.18 µM and 3.03 µM
CC(C)(C)C(=O)Nc1ccccc1I(=O)=O	> 100	> 100	> 100	> 100 µM	> 100 µM	> 100 µM	> 100	> 100	> 100 µM	> 100 µM	> 100000	> 100 µM	> 100	> 100	> 100 µM	> 100 µM
Cc1ccccc1CN1CC2=C(CCN(Cc3ccccc3)C2=O)N2CCN=C12	0.7	> 100		> 100 µM		> 80 µM		> 100		> 100 µM		> 100 µM		> 100		> 100 µM
COc1ccc(/C=C2\CN(C(=O)C(Cl)Cl)C/C(=C\c3ccc(OC)c(OC)c3)C2=O)cc1OC	0.0341	> 100	0.0987	0.332 µM	0.344 µM	1.39 µM			0.301 µM	2.4 µM	209	0.492 µM			0.184 µM	0.423 µM
CCOC(=O)CCCn1c(SC)nc2cc(-c3ccco3)[nH]c2c1=O	> 100	> 100	> 100	> 100 µM	28 µM	81.2 µM	> 100	> 100	> 100 µM	> 100 µM	12000	30.6 µM	81.8	> 100	72.6 µM	> 100 µM
N#CC1=C(N)NC(=S)NC12Nc1ccccc1O2 (configuration not stated)	61.7	> 100	27.1	> 100 µM	19.3 µM	76.7 µM	52	> 100	28.6 µM	> 100 µM	> 100000	> 100 µM	25.2	90	25.4 µM	> 100 µM
OC(C1=C/C(=C\c2ccncc2)c2ccccc21)c1ccncc1 (configuration not stated)		45.9		35.1 µM		23.4 µM		> 57.6		32.9 µM		30.6 µM		35.4		28.2 µM
COc1ccc(/C=C\c2cc(OC)c(OC)c(OC)c2)cc1OC(=O)C(N)CCC(=O)O (configuration not stated)	0.000576	> 100	0.00156	0.0073 µM	0.00211 µM and 0.00795 µM			> 100	0.00125 µM and 0.000357 µM		0.0467			> 100	0.000436 µM and < 0.0001 µM	
O=C(/C=C/C=C/c1ccccc1)CCc1ccccc1		> 100		> 100 µM		> 100 µM		> 100		> 100 µM		> 100 µM		> 100		> 100 µM
O=[N+]([O-])c1ccc(-c2nc(N(CCO)CCO)c3ccccc3n2)o1	1.14	64.1	0.216	0.862 µM	1.08 µM	4.25 µM	0.208	1.8	0.293 µM	2.84 µM	159	0.34 µM	0.292	7.72	0.213 µM	0.714 µM
C=C1CC[C@@]2(C#N)[C@H]3[C@H](CC[C@@H]2C)[C@@H](C)C[C@@H](CC(C)(C)C#N)[C@H]13	1.62	33.5	0.471	18.9 µM	6.1 µM	35.8 µM	2.14	41	0.283 µM	30.5 µM	5850	22.8 µM	5.71	64.8	0.363 µM	19.3 µM
COc1c(C)c2c(c(O)c1C/C=C(\C)CCC(=O)OCCN1CCOCC1)C(=O)OC2	0.187	> 100	0.317	> 100 µM	3.48 µM	> 100 µM	0.576	> 76.7	0.562 µM	> 100 µM	774	> 100 µM	0.448	> 100	0.599 µM	> 100 µM
COc1ccc(C2=NN(C(=O)COc3ccc(Cl)cc3)C(O)(c3cc(F)c(Cl)cc3Cl)C2)cc1OC (configuration not stated)	0.218	1.8	4.88	16.2 µM	2.41 µM	6.53 µM	2.26	6.97	5.49 µM	13.2 µM	474	1.48 µM	3.65	13.3	2.08 µM	5.14 µM
N=C1c2nc3n(c2C(=O)c2nc4n(c21)CCCC4)CCCC3	20.5	> 100	16.6	> 100 µM	33.6 µM	> 100 µM	24.7	> 100	> 68.8 µM	> 100 µM	15800	51 µM	1.58	3.12	4.03 µM	28.6 µM
CCN(CC)CCOc1ccc(Nc2ncc3cc(-c4ccc(O)cc4)c(=O)n(C)c3n2)cc1	0.845	> 26.4	2.44	17.1 µM	1.17 µM	7.36 µM	16.7	33.7	0.831 µM	24.6 µM	147	1.67 µM	0.212	21.2	0.0396 µM	1.6 µM
